Source: patent US7145013B2, “3-thia-4-arylquinolin-2-one derivatives” (Bristol-Myers Squibb Company, priority 2003, dated 2006)

Columns and labels:
[1] = tested on: cloned mammalian (mSlo or hSlo) BK channel expressed in Xenopus oocytes; test: Assay for BK channel openers: two-electrode voltage clamp, BK-mediated outward current in Xenopus oocytes; type: cell-based; settings: percent increase over BK current in controls, voltage step to +140 mV, IBTX-sensitive current
Experimental: The ability of the compounds of the invention to open BK channels and increase whole-cell outward (K^+) BK-mediated currents was assessed under voltage-clamp conditions by determining their ability to increase cloned mammalian (mSlo or hSlo) BK-mediated outward current heterologously expressed in Xenopus oocytes [Butler, A., et al., Science 1993, 261, 221–224; Dworetzky, S. I., et al., Mol. Brain Res. 1994, 27, 189–193; Gribkoff, V. K., et al., Mol. Pharmacol. 1996, 50, 206–217]. The two BK constructs employed represent nearly structurally identical homologous proteins, and have proven to be pharmacologically indistinguishable in our tests. To isolate BK current from native (background, non-BK) current, the specific and potent BK channel-blocking toxin iberiotoxin (IBTX) [Galvez, A., et al., J. Biol. Chem. 1990, 265, 11083–11090] was employed at a supramaximal concentration, e.g., 50–100 nanomolar (“nM”). The relative contribution of BK channel-mediated current to total outward current was determined by subtraction of the current remaining in the presence of IBTX (non-BK current) from the current profiles obtained in all other experimental conditions (control, drug, and wash) [Gribkoff, V. K. et al., Mol. Pharmacol. 1996, 50, 206–217]. […] All compounds were tested in 5–10 oocytes and are reported at the indicated concentration of 20 micromolar (“μM”) (or as otherwise indicated); the effect of the selected compounds of the invention on BK current was expressed as the percent of control IBTX-sensitive current at a single transmembrane voltage (+140 mV) and is listed in Table 1. Recordings were accomplished using standard two-electrode voltage clamp techniques [Stuhmer, W., et al., Methods in Enzymology, 1992, 207, 319–339]; voltage-clamp protocols consisted of 500–750 milliseconds (“ms”) duration step depolarizations, from a holding potential of −60 mV, to a final voltage up to +140 mV in 20 mV steps. The experimental media (modified Barth's solution) consisted of millimolar (“mM”): NaCl (88), NaHCO3 (2.4), KCl (1.0), HEPES (10), MgSO4 (0.82), Ca(NO3)2 (0.33), CaCl2 (0.41); pH 7.5.

[2] = tested on: rat small intestine (ileum) segments; test: Rat small intestine (ileum) strip relaxation; settings: integral of nifedipine-sensitive force, pre- vs 30 min post-compound
Source text: The ability of the compounds of the invention to relax rat small intestine tissue as a model for the treatment of irritable bowel syndrome is described as follows. Male rats (Harlan, Sprague Dawley, 250–350 g) were sacrificed by decapitation. A portion of small intestine (ileum) was removed and the attached connective tissues and intestinal contents removed. The ileum was cut into segments of ≦1 cm in length. The segments were mounted longitudinally between fixed hooks in organ baths containing warm (37° C.) physiological salt solution (composition in mM: NaCl 118.4, KCl 4.7, KH2PO4 1.2, MgSO4 1.2, CaCl2 1.8, Glucose 10.1, NaHCO3 25; gassed with 95% O2/5% CO2, pH 7.4). A stable tension of ˜1.5 g was maintained in the tissue segments during the equilibration period of 45 minutes. Changes in muscle tension were measured with isometric force transducers (Grass, FT-03C) and recorded using AcqKnowledge data acquisition system (AcqKnowledge for MP100WS, Biopac Systems Inc., Goleta, Calif.). Compound or vehicle was added in the baths for 30 minutes. […] The effects of compounds or vehicle on force was determined by measuring the integral of nifedipine-sensitive force (including resting tone and spontaneous contractions) pre- and 30 min post-compound (or vehicle) addition. Results are expressed as the percentage inhibition of force. […]

| Structure (SMILES) | % MaxiK opening ([1]; at 20 μM) | % Inhibition of force (RSI strips) [2] | % MaxiK opening ([1]; at 1 μM) |
| --- | --- | --- | --- |
| Nc1ccc(Sc2c(-c3cc(Cl)ccc3O)c3cc(C(F)(F)F)ccc3[nH]c2=O)cc1 [Example 1, 3-[(4-Aminophenyl)thio]-4-(5-chloro-2-hydroxyphenyl)-6-(trifluoromethyl)-2(1H)-quinolinone] | 392% | 10% |  |
| Cn1c(=O)c(Sc2ccc(N)cc2)c(-c2cc(Cl)ccc2O)c2cc(C(F)(F)F)ccc21 [Example 2, 3-[(4-Aminophenyl)thio]-4-(5-chloro-2-hydroxyphenyl)-1-methyl-6-(trifluoromethyl)-2(1H)-quinolinone] | 144% |  |  |
| CCS(=O)(=O)Nc1ccc(Sc2c(-c3cc(Cl)ccc3O)c3cc(C(F)(F)F)ccc3[nH]c2=O)cc1 [Example 3, N-[4-[[4-(5-Chloro-2-hydroxyphenyl)-1,2-dihydro-2-oxo-6-(trifluoromethyl)-3-quinolinyl]thio]phenyl]ethanesulfonamide] | 296% |  |  |
| COc1ccc(Cl)cc1-c1c(Sc2ccc(NS(=O)(=O)C(F)(F)F)cc2)c(=O)[nH]c2ccc(C(F)(F)F)cc12 [Example 4, N-[4-[[4-(5-chloro-2-methoxyphenyl)-1,2-dihydro-2-oxo-6-(trifluoromethyl)-3-quinolinyl]thio]phenyl]-1,1,1-trifluoromethanesulfonamide] | 235% |  |  |
| CCCS(=O)(=O)Nc1ccc(Sc2c(-c3cc(Cl)ccc3O)c3cc(C(F)(F)F)ccc3[nH]c2=O)cc1 [Example 5, N-[4-[[4-(5-chloro-2-hydroxyphenyl)-1,2-dihydro-2-oxo-6-(trifluoromethyl)-3-quinolinyl]thio]phenyl]-1-propanesulfonamide] | 255% |  |  |
| CN(C)S(=O)(=O)Nc1ccc(Sc2c(-c3cc(Cl)ccc3O)c3cc(C(F)(F)F)ccc3[nH]c2=O)cc1 [Example 6, N′-[4-[[4-(5-chloro-2-hydroxyphenyl)-1,2-dihydro-2-oxo-6-(trifluoromethyl)-3-quinolinyl]thio]phenyl]-N,N-dimethylsulfamide] |  |  | 222^⋄ % |
| O=c1[nH]c2ccc(C(F)(F)F)cc2c(-c2cc(Cl)ccc2O)c1Sc1ccc(NS(=O)(=O)C(F)(F)F)cc1 [Example 7, N-[4-[[4-(5-chloro-2-hydroxyphenyl)-1,2-dihydro-2-oxo-6-(trifluoromethyl)-3-quinolinyl]thio]phenyl]-1,1,1-trifluoromethanesulfonamide] | 277% | 51% |  |
| O=c1[nH]c2ccc(C(F)(F)F)cc2c(-c2cc(Cl)ccc2O)c1Sc1ccc(NS(=O)(=O)CC(F)(F)F)cc1 [Example 8, N-[4-[[4-(5-chloro-2-hydroxyphenyl)-1,2-dihydro-2-oxo-6-(trifluoromethyl)-3-quinolinyl]thio]phenyl]-2,2,2-trifluoroethanesulfonamide] | 170% |  |  |
| CN(C)S(=O)(=O)Nc1ccc(Sc2c(-c3cc(Cl)ccc3O)c3cc(C(F)(F)F)ccc3n(C)c2=O)cc1 [Example 9, N′-[4-[[4-(5-chloro-2-hydroxyphenyl)-1,2-dihydro-1-methyl-2-oxo-6-(trifluoromethyl)-3-quinolinyl]thio]phenyl]-N,N-dimethylsulfamide] |  |  | 114^⋄ % |
